Results taken from PubChem BioAssay (NCI).
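Dose response: 5 concentrations. Exposure: 48 h. Format: 96-well plates. Endpoint: linear interpolation; highest concentration if not reached. TGI marks complete inhibition of growth.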

Tests used:
Assay in all cases: NCI anticancer screen, dose series, 48 h
MOLT-4 leukemia = tested on: MOLT-4 leukemia
SN12C renal = tested on: SN12C renal
SNB-19 CNS = tested on: SNB-19 CNS
SR leukemia = tested on: SR leukemia
SF-539 CNS = tested on: SF-539 CNS
NCI-H226 lung = tested on: NCI-H226 lung
MDA-N = tested on: MDA-N
SW-620 colon = tested on: SW-620 colon
BT-549 breast = tested on: BT-549 breast
NCI-H522 lung = tested on: NCI-H522 lung
SK-OV-3 ovarian = tested on: SK-OV-3 ovarian
KM12 colon = tested on: KM12 colon
786-0 renal = tested on: 786-0 renal
RXF 393 renal = tested on: RXF 393 renal
UACC-257 melanoma = tested on: UACC-257 melanoma
MDA-MB-231 breast = tested on: MDA-MB-231 breast
K-562 leukemia = tested on: K-562 leukemia
HCC-2998 colon = tested on: HCC-2998 colon
OVCAR-8 ovarian = tested on: OVCAR-8 ovarian
OVCAR-5 ovarian = tested on: OVCAR-5 ovarian
HL-60(TB) leukemia = tested on: HL-60(TB) leukemia
A498 renal = tested on: A498 renal
COLO 205 colon = tested on: COLO 205 colon
DU-145 prostate = tested on: DU-145 prostate
CAKI-1 renal = tested on: CAKI-1 renal
CCRF-CEM leukemia = tested on: CCRF-CEM leukemia
SF-268 CNS = tested on: SF-268 CNS
M14 melanoma = tested on: M14 melanoma
MDA-MB-435 = tested on: MDA-MB-435
NCI/ADR-RES ovarian = tested on: NCI/ADR-RES ovarian
UO-31 renal = tested on: UO-31 renal
RPMI-8226 leukemia = tested on: RPMI-8226 leukemia
HT29 colon = tested on: HT29 colon
EKVX NSCLC = tested on: EKVX NSCLC
HOP-62 NSCLC = tested on: HOP-62 NSCLC
TK-10 renal = tested on: TK-10 renal
UACC-62 melanoma = tested on: UACC-62 melanoma
HOP-92 NSCLC = tested on: HOP-92 NSCLC
ACHN renal = tested on: ACHN renal
IGROV1 ovarian = tested on: IGROV1 ovarian
A549 NSCLC = tested on: A549 NSCLC
NCI-H460 lung = tested on: NCI-H460 lung
U251 CNS = tested on: U251 CNS
OVCAR-3 ovarian = tested on: OVCAR-3 ovarian
SNB-75 CNS = tested on: SNB-75 CNS
MALME-3M melanoma = tested on: MALME-3M melanoma
SK-MEL-2 melanoma = tested on: SK-MEL-2 melanoma
PC-3 prostate = tested on: PC-3 prostate
NCI-H23 lung = tested on: NCI-H23 lung
HCT-15 colon = tested on: HCT-15 colon
SK-MEL-28 melanoma = tested on: SK-MEL-28 melanoma
T-47D breast = tested on: T-47D breast
SK-MEL-5 melanoma = tested on: SK-MEL-5 melanoma
HCT-116 colon = tested on: HCT-116 colon
SF-295 CNS = tested on: SF-295 CNS
HS 578T breast = tested on: HS 578T breast
OVCAR-4 ovarian = tested on: OVCAR-4 ovarian
LOX IMVI melanoma = tested on: LOX IMVI melanoma
MCF7 breast = tested on: MCF7 breast

Compound: NC(CSS(=O)(=O)c1ccccc1)C(=O)O (configuration not stated)
- TGI (MOLT-4 leukemia): > 10 µM
- TGI (SN12C renal): > 10 µM
- TGI (SNB-19 CNS): > 10 µM
- TGI (SR leukemia): > 10 µM
- TGI (SF-539 CNS): > 10 µM
- TGI (NCI-H226 lung): > 10 µM
- TGI (MDA-N): > 10 µM
- TGI (SW-620 colon): > 10 µM
- TGI (BT-549 breast): > 10 µM
- TGI (NCI-H522 lung): > 10 µM
- TGI (SK-OV-3 ovarian): > 10 µM
- TGI (KM12 colon): > 10 µM
- TGI (786-0 renal): > 10 µM
- TGI (RXF 393 renal): > 10 µM
- TGI (UACC-257 melanoma): > 10 µM
- TGI (MDA-MB-231 breast): > 10 µM
- TGI (K-562 leukemia): > 10 µM
- TGI (HCC-2998 colon): > 10 µM
- TGI (OVCAR-8 ovarian): > 10 µM
- TGI (OVCAR-5 ovarian): > 10 µM
- TGI (HL-60(TB) leukemia): > 10 µM
- TGI (A498 renal): > 10 µM
- TGI (COLO 205 colon): > 10 µM
- TGI (DU-145 prostate): > 10 µM
- TGI (CAKI-1 renal): > 10 µM
- TGI (CCRF-CEM leukemia): > 10 µM
- TGI (SF-268 CNS): > 10 µM
- TGI (M14 melanoma): > 10 µM
- TGI (MDA-MB-435): > 10 µM
- TGI (NCI/ADR-RES ovarian): > 10 µM
- TGI (UO-31 renal): > 10 µM
- TGI (RPMI-8226 leukemia): > 10 µM
- TGI (HT29 colon): > 10 µM
- TGI (EKVX NSCLC): > 10 µM
- TGI (HOP-62 NSCLC): > 10 µM
- TGI (TK-10 renal): > 10 µM
- TGI (UACC-62 melanoma): > 10 µM
- TGI (HOP-92 NSCLC): > 10 µM
- TGI (ACHN renal): > 10 µM
- TGI (IGROV1 ovarian): > 10 µM
- TGI (A549 NSCLC): > 10 µM
- TGI (NCI-H460 lung): > 10 µM
- TGI (U251 CNS): > 10 µM
- TGI (OVCAR-3 ovarian): > 10 µM
- TGI (SNB-75 CNS): > 10 µM
- TGI (MALME-3M melanoma): > 10 µM
- TGI (SK-MEL-2 melanoma): > 10 µM
- TGI (PC-3 prostate): > 10 µM
- TGI (NCI-H23 lung): > 10 µM
- TGI (HCT-15 colon): > 10 µM
- TGI (SK-MEL-28 melanoma): > 10 µM
- TGI (T-47D breast): > 10 µM
- TGI (SK-MEL-5 melanoma): > 10 µM
- TGI (HCT-116 colon): > 10 µM
- TGI (SF-295 CNS): > 10 µM
- TGI (HS 578T breast): > 10 µM
- TGI (OVCAR-4 ovarian): > 10 µM
- TGI (LOX IMVI melanoma): > 10 µM
- TGI (MCF7 breast): > 10 µM

Compound: O=C(O)C(Cc1c[nH]c2ccccc12)C(=O)NO (configuration not stated)
- TGI (MOLT-4 leukemia): > 100 µM
- TGI (SN12C renal): > 100 µM
- TGI (SNB-19 CNS): > 100 µM
- TGI (SR leukemia): > 100 µM
- TGI (SF-539 CNS): > 100 µM
- TGI (NCI-H226 lung): > 100 µM
- TGI (MDA-N): > 100 µM
- TGI (SW-620 colon): > 100 µM
- TGI (BT-549 breast): > 100 µM
- TGI (NCI-H522 lung): > 100 µM
- TGI (SK-OV-3 ovarian): > 100 µM
- TGI (KM12 colon): > 100 µM
- TGI (786-0 renal): > 100 µM
- TGI (RXF 393 renal): > 100 µM
- TGI (UACC-257 melanoma): > 100 µM
- TGI (MDA-MB-231 breast): > 100 µM
- TGI (K-562 leukemia): > 100 µM
- TGI (HCC-2998 colon): > 100 µM
- TGI (OVCAR-8 ovarian): > 100 µM
- TGI (OVCAR-5 ovarian): > 100 µM
- TGI (HL-60(TB) leukemia): > 100 µM
- TGI (A498 renal): > 100 µM
- TGI (COLO 205 colon): > 100 µM
- TGI (DU-145 prostate): > 100 µM
- TGI (CAKI-1 renal): > 100 µM
- TGI (CCRF-CEM leukemia): > 100 µM
- TGI (SF-268 CNS): > 100 µM
- TGI (M14 melanoma): > 100 µM
- TGI (MDA-MB-435): > 100 µM
- TGI (NCI/ADR-RES ovarian): > 100 µM
- TGI (UO-31 renal): > 100 µM
- TGI (RPMI-8226 leukemia): > 100 µM
- TGI (HT29 colon): > 100 µM
- TGI (EKVX NSCLC): > 100 µM
- TGI (HOP-62 NSCLC): > 100 µM
- TGI (TK-10 renal): > 100 µM
- TGI (UACC-62 melanoma): > 100 µM
- TGI (HOP-92 NSCLC): > 100 µM
- TGI (ACHN renal): > 100 µM
- TGI (IGROV1 ovarian): > 100 µM
- TGI (A549 NSCLC): > 100 µM
- TGI (NCI-H460 lung): > 100 µM
- TGI (U251 CNS): > 100 µM
- TGI (OVCAR-3 ovarian): > 100 µM
- TGI (SNB-75 CNS): > 100 µM
- TGI (MALME-3M melanoma): > 100 µM
- TGI (SK-MEL-2 melanoma): > 100 µM
- TGI (PC-3 prostate): > 100 µM
- TGI (NCI-H23 lung): > 100 µM
- TGI (HCT-15 colon): > 100 µM
- TGI (SK-MEL-28 melanoma): > 100 µM
- TGI (T-47D breast): > 100 µM
- TGI (SK-MEL-5 melanoma): > 100 µM
- TGI (HCT-116 colon): > 100 µM
- TGI (SF-295 CNS): > 100 µM
- TGI (HS 578T breast): > 100 µM
- TGI (OVCAR-4 ovarian): > 100 µM
- TGI (LOX IMVI melanoma): > 100 µM
- TGI (MCF7 breast): > 100 µM

Compound: CC(C)C(Br)CC/C(CBr)=C(\Cl)CCl (configuration not stated)
- TGI (MOLT-4 leukemia): 2.36 µM
- TGI (SN12C renal): 8.5 µM
- TGI (SNB-19 CNS): 31.1 µM
- TGI (SR leukemia): 3.71 µM
- TGI (SF-539 CNS): 11.4 µM
- TGI (NCI-H226 lung): 6.97 µM
- TGI (MDA-N): 3.81 µM
- TGI (SW-620 colon): 3.94 µM
- TGI (BT-549 breast): 3.27 µM
- TGI (NCI-H522 lung): 2.02 µM
- TGI (SK-OV-3 ovarian): 11.3 µM
- TGI (KM12 colon): 17.9 µM
- TGI (786-0 renal): 3.49 µM
- TGI (RXF 393 renal): 3.66 µM
- TGI (UACC-257 melanoma): 9.52 µM
- TGI (MDA-MB-231 breast): 7.71 µM
- TGI (K-562 leukemia): 3.03 µM
- TGI (HCC-2998 colon): 26.3 µM
- TGI (OVCAR-8 ovarian): 9.82 µM
- TGI (OVCAR-5 ovarian): 23.3 µM
- TGI (HL-60(TB) leukemia): 3.86 µM
- TGI (A498 renal): 35 µM
- TGI (COLO 205 colon): 8.53 µM
- TGI (DU-145 prostate): 25.2 µM
- TGI (CAKI-1 renal): 9.89 µM
- TGI (CCRF-CEM leukemia): 0.995 µM
- TGI (SF-268 CNS): 27.9 µM
- TGI (M14 melanoma): 3.82 µM
- TGI (MDA-MB-435): 5.16 µM
- TGI (NCI/ADR-RES ovarian): 16.2 µM
- TGI (UO-31 renal): 15.8 µM
- TGI (RPMI-8226 leukemia): 4.49 µM
- TGI (HT29 colon): 4.09 µM
- TGI (EKVX NSCLC): 31.9 µM
- TGI (HOP-62 NSCLC): 30.3 µM
- TGI (TK-10 renal): 20.1 µM
- TGI (UACC-62 melanoma): 7.71 µM
- TGI (HOP-92 NSCLC): 6.84 µM
- TGI (ACHN renal): 28.2 µM
- TGI (IGROV1 ovarian): 3.64 µM
- TGI (A549 NSCLC): 33.3 µM
- TGI (NCI-H460 lung): 30.6 µM
- TGI (U251 CNS): 17.5 µM
- TGI (OVCAR-3 ovarian): 8.21 µM
- TGI (SNB-75 CNS): 13.4 µM
- TGI (MALME-3M melanoma): 15.2 µM
- TGI (SK-MEL-2 melanoma): 4.35 µM
- TGI (PC-3 prostate): 16.3 µM
- TGI (NCI-H23 lung): 12.3 µM
- TGI (HCT-15 colon): 4.82 µM
- TGI (SK-MEL-28 melanoma): 10.1 µM
- TGI (T-47D breast): 3.43 µM
- TGI (SK-MEL-5 melanoma): 3.8 µM
- TGI (HCT-116 colon): 5.11 µM
- TGI (SF-295 CNS): 28.7 µM
- TGI (HS 578T breast): 15.4 µM
- TGI (OVCAR-4 ovarian): 6.48 µM
- TGI (LOX IMVI melanoma): 1.08 µM
- TGI (MCF7 breast): 19.3 µM
